Experimental data taken from patent US20100297145A1, “Apoptosis promoter, cell proliferation inhibitor, prophylactic/therapeutic agent for cancer, screening method for the promoter, inhibitor or agent” (priority 2005, published 2010).

Legend:
Format in all cases: cell-based, human
[1] = test system: DU145; assay: WST-1 method, growth of DU145 transfected with siRNA
Method: (§1) The human prostate cancer cell line DU145 (purchased from ATCC) was cultured in RPMI1640 medium (in the presence of 10% fetal bovine serum) and used.
(§2) DU145 was transiently transfected with siRNAs against PCA-1 ([…] (SEQ ID NO:4), […] (SEQ ID NO:5), […] (SEQ ID NO:6)) using DharmaFECT 1 (GE Healthcare Bioscience.). Expression suppression and knockdown effects were confirmed by real-time PCR and PCA-1 quantitative ELISA method. Control siRNA ([…] (SEQ ID NO:7)) was purchased from GE Healthcare Bioscience.
Two days after DU145 was transfected with siRNA, the cells were harvested, and 100 μl of the cells were sown to a 96-well plate at 1×10^4/ml. Thereafter, 10 μl of a 1:9 mixture of a 1-methoxy PMS (1-methoxy-5-methylphenazinium.methylsulfate) solution and a WST-1 (2-(4-Iodophenyl)-3-(4-nitrophenyl)-5-(2,4-disulfophenyl)-2H-tetrazolium, monosodium salt) solution was added to each well every 24 hours; 1 hour later, absorbance was measured at 450 nm. As the control wavelength, 630 nm was used. The day of the start of transfection is designated as day 0.

[2] = test system: DU145; assay: Apoptosis analysis (propidium iodide, flowcytometer) of DU145 transfected with siRNA
Method: as §1, §2
After DU145 was transfected with PCA-1 siRNA, the cells were harvested and fixed with ethanol. Thereafter, the cells were stained with propidium iodide, and the ratio of apoptosis cells was analyzed using a flowcytometer.

[3] = test system: DU145/PCA-1; assay: Cell growth of PCA-1-overexpressing cell line with EGF stimulation (MTS reagent); conditions: EGF 10 ng/ml, 36 hours, serum-free, pretreatment with ERK inhibitor
Method: (§3) The human prostate cancer cell line DU145 (purchased from ATCC) was cultured in RPMI medium (in the presence of 10% serum) and used. The human PCA-1 gene was cleaved out from a PCA-1 vector, and this was inserted into pIRES/Neo, which is a vector that encodes the neomycin resistance gene (hereinafter pIRES/Neo/PCA-1). […] For control, a clone (DU145/Neo) incorporating an empty vector, and cultured under the same conditions, was used.
Experiments were performed using the MTS [(3-(4,5-dimethylthiazol-2-yl)-5-(3-carboxymethoxyphenyl)-2-(4-sulphonyl)-2H-tetrazolium, inner salt] reagent (Promega, Tokyo, Japan) in accordance with the attached protocol.
Cell growth for 36 hours under serum-free conditions was examined.

[4] = test system: DU145/PCA-1; assay: Paclitaxel-induced apoptosis quantified by flowcytometry
Method: as §3
A control cell line (DU145/Neo) and DU145/PCA-1 were stimulated with paclitaxel (100 nM); 48 hours later, apoptosis was quantified using flowcytometry.

[5] = test system: DU145/PCA-1; assay: TRAIL-induced apoptosis analyzed by flowcytometry; conditions: TRAIL 50 ng/ml, 24 hours
Method: as §3
TRAIL is drawing attention as a new-generation anticancer agent for prostate cancer, and it has been reported that FLIP acts suppressively on the mechanism therefor.

In the case of “Control siRNA: Control siRNA (auccgcgcgauaguacgua (SEQ ID NO:7)) purchased from GE Healthcare Bioscience (AUCCGCGCGAUAGUACGUA; listed as RNA, chemistry not given here)”, the “absorbance relative to the absorbance on day 3 written as 1” value (“absorbance relative to the absorbance” for short) ([1]; DU145, Day 3) is reported as 1, the “absorbance relative to the absorbance” value ([1]; DU145, Day 4) is reported as 1.99 and the “absorbance relative to the absorbance” value ([1]; DU145, Day 5) is reported as 3.98. The “absorbance relative to the absorbance” value ([1]; DU145, Day 6) was 7.25, the “absorbance relative to the absorbance” value ([1]; DU145, Day 7) was 11.91 and the “absorbance relative to the absorbance” value ([1]; DU145, Day 8) was 12.90. For the same molecule, the “growth of DU145 over time (in words)” value ([1]; DU145 transfected cells, WST-1) was “remarkable growth”, the “ratio of apoptosis cells” value ([2]; DU145, Day 2) was 0.98% and the “ratio of apoptosis cells” value ([2]; DU145, Day 3) was 1.96%. For the same molecule, the “ratio of apoptosis cells” value ([2]; DU145, Day 4) was 5.00% and the “ratio of apoptosis cells” value ([2]; DU145, Day 5) was 1.88%.

For N#CC(=C(/N)Sc1ccccc1N)/C(C#N)=C(\N)Sc1ccccc1N [U0126], the “effect of pretreatment on EGF-stimulated growth increase of DU145/PCA-1” value [3] was “inhibited (cancelled)” and the “effect on the paclitaxel-induced apoptosis inhibitory effect of PCA-1” value ([4]; DU145/PCA-1, paclitaxel 100 nM, with ERK inhibitor) was “cancelled”.

In the case of CC(=O)O[C@H]1C(=O)[C@@]2(C)[C@H]([C@H](OC(=O)c3ccccc3)[C@]3(O)C[C@H](OC(=O)[C@H](O)[C@@H](NC(=O)c4ccccc4)c4ccccc4)C(C)=C1C3(C)C)[C@]1(OC(C)=O)CO[C@@H]1C[C@@H]2O [paclitaxel], the “paclitaxel-induced apoptosis in DU145/PCA-1 compared with control strain (DU145/Neo)” value ([4]; paclitaxel 100 nM, 48 hours) is reported as “significantly inhibited”.

B1: TRAIL: tumor necrosis factor-related apoptosis-inducing ligand (protein, UniProt P50591 1-281, looked up)
Tumor necrosis factor ligand …: MAMMEVQGGPSLGQTCVLIVIFTVLLQSLCVAVTYVYFTNELKQMQDKYSKSGIACFLKEDDSYWDPNDEESMNSPCWQVKWQLRQLVRKMILRTSEETISTVQEKQQNISPLVRERGPQRVAAHITGTRGRSNTLSSPNSKNEKALGRKINSWESSRSGHSFLSNLHLRNGELVIHEKGFYYIYSQTYFRFQEEIKENTKNDKQMVQYIYKYTSYPDPILLMKSARNSCWSKDAEYGLYSIYQGGIFELKENDRIFVSVTNEHLIDMDHEASFFGAFLVG
For B1, the “apoptosis induction in DU145/PCA-1 compared with control (DU145/Neo)” value [5] was “significantly inhibited”.
